Columns and labels:
Type in all cases: in vivo
[1] = test system: barnyardgrass (Echinochloa crus-galli); test: Test A pre-/postemergence: barnyardgrass
Procedure, shortened: (§1)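 Injury is scored visually on a scale where 0 means no effect and 100 complete control, comparing treated with untreated plants after approximately ten greenhouse days. Both preemergence and postemergence applications are made at the same time.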

[2] = test system: crabgrass, large (large crabgrass, Digitaria sanguinalis); test: Test A pre-/postemergence: crabgrass, large
Procedure, shortened: as §1

[3] = test system: foxtail, giant (giant foxtail, Setaria faberii); test: Test A pre-/postemergence: foxtail, giant
Procedure, shortened: as §1

[4] = test system: morningglory (Ipomoea spp.); test: Test A pre-/postemergence: morningglory
Procedure, shortened: as §1

[5] = test system: pigweed (Amaranthus retroflexus); test: Test A pre-/postemergence: pigweed
Procedure, shortened: as §1

[6] = test system: velvetleaf (Abutilon theophrasti); test: Test A pre-/postemergence: velvetleaf
Procedure, shortened: as §1

[7] = test system: wheat (Triticum aestivum); test: Test A pre-/postemergence: wheat
Procedure, shortened: as §1

corn (Zea mays) = test: Test A pre-/postemergence: corn
Procedure, shortened: as §1

rice (Oryza sativa) = test: Test B flooded paddy: rice; conditions: Flood, applied to paddy water at 2-leaf stage, visually evaluated after 13 to 15 days
Procedure, shortened: (§2)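 Flooded-pot test: compound dosed into 3 cm of standing water above soil when plants had two leaves. Visual control ratings (0–100) versus untreated plants after 13–15 d.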

[8] = test system: sedge, umbrella (small-flower umbrella sedge Cyperus difformis); test: Test B flooded paddy: sedge, umbrella; conditions: Flood, applied to paddy water at 2-leaf stage, visually evaluated after 13 to 15 days
Procedure, shortened: as §2

[9] = test system: ducksalad (Heteranthera limosa); test: Test B flooded paddy: ducksalad; conditions: Flood, applied to paddy water at 2-leaf stage, visually evaluated after 13 to 15 days
Procedure, shortened: as §2

[10] = test system: barnyardgrass (Echinochloa crus-galli); test: Test B flooded paddy: barnyardgrass; conditions: Flood, applied to paddy water at 2-leaf stage, visually evaluated after 13 to 15 days
Procedure, shortened: as §2

[11] = Postemergence, 125 g ai/ha, 0 to 100 scale, 0 is no effect, 100 is complete control
[12] = Postemergence, 500 g ai/ha, 0 to 100 scale, 0 is no effect, 100 is complete control
[13] = Preemergence, 125 g ai/ha, 0 to 100 scale where 0 is no effect and 100 is complete control
[14] = Preemergence, 500 g ai/ha, 0 to 100 scale (0 no effect, 100 complete control)

SMILES | Plant response rating, Barnyardgrass [1, 11] | Barnyardgrass plant response rating [1, 12] | Plant response rating, Barnyardgrass [1, 13] | Plant response rating, Barnyardgrass [1, 14] | Plant response rating, Crabgrass, Large [2, 11] | Crabgrass, Large plant response rating [2, 12] | Plant response rating, Crabgrass, Large [2, 13] | Plant response rating, Crabgrass, Large [2, 14] | Plant response rating, Foxtail, Giant [3, 11] | Foxtail, Giant plant response rating [3, 12] | Plant response rating, Foxtail, Giant [3, 13] | Plant response rating, Foxtail, Giant [3, 14] | Plant response rating, Morningglory [4, 11] | Morningglory plant response rating [4, 12] | Plant response rating, Morningglory [4, 13] | Plant response rating, Morningglory [4, 14] | Plant response rating, Pigweed [5, 11] | Pigweed plant response rating [5, 12] | Plant response rating, Pigweed [5, 13] | Plant response rating, Pigweed [5, 14] | further results
CCCOc1nn(-c2ccc(C(F)(F)F)cc2)nc1Cc1ccnc(C(F)(F)F)c1 [Compound 191] | 60 | 100 | 90 | 100 | 90 | 100 | 100 | 100 | 90 | 100 | 100 | 100 | 100 | 100 | 20 | 30 | 100 | 100 | 100 | 100 | Plant response rating, Velvetleaf [6, 11]: 80; Velvetleaf plant response rating [6, 12]: 100; Plant response rating, Velvetleaf [6, 13]: 30; Plant response rating, Velvetleaf [6, 14]: 80; Plant response rating, Wheat [7, 11]: 70; Wheat plant response rating [7, 12]: 80; Plant response rating, Wheat [7, 13]: 40; Plant response rating, Wheat [7, 14]: 70; Plant response rating, Corn (corn (Zea mays); [11]): 30; Corn plant response rating (corn (Zea mays); [12]): 80; Plant response rating, Corn (corn (Zea mays); [13]): 20; Plant response rating, Corn (corn (Zea mays); [14]): 60; Plant response rating, Rice (0 to 100 scale, 0 is no effect, 100 is complete control) (rice (Oryza sativa); 125 g ai/ha): 50; Plant response rating, Sedge, Umbrella (0 to 100 scale, 0 is no effect, 100 is complete control) ([8]; 125 g ai/ha): 50; Plant response rating, Ducksalad (0 to 100 scale, 0 is no effect, 100 is complete control) ([9]; 125 g ai/ha): 20; Plant response rating, Barnyardgrass (0 to 100 scale, 0 is no effect, 100 is complete control) ([10]; 125 g ai/ha): 50
CC(C)Oc1nn(-c2ccc(C(F)(F)F)cc2)nc1Cc1ccnc(C(F)(F)F)c1 [Compound 192] | 0 | 20 | 0 | 0 | 10 | 30 | 0 | 70 | 10 | 20 | 0 | 80 | 30 | 70 | 0 | 10 | 40 | 100 | 10 | 40 | Plant response rating, Velvetleaf [6, 11]: 20; Velvetleaf plant response rating [6, 12]: 100; Plant response rating, Velvetleaf [6, 13]: 0; Plant response rating, Velvetleaf [6, 14]: 0; Plant response rating, Wheat [7, 11]: 0; Wheat plant response rating [7, 12]: 10; Plant response rating, Wheat [7, 13]: 0; Plant response rating, Wheat [7, 14]: 0; Plant response rating, Corn (corn (Zea mays); [11]): 10; Corn plant response rating (corn (Zea mays); [12]): 30; Plant response rating, Corn (corn (Zea mays); [13]): 0; Plant response rating, Corn (corn (Zea mays); [14]): 0; Plant response rating, Rice (0 to 100 scale, 0 is no effect, 100 is complete control) (rice (Oryza sativa); 250 g ai/ha): 0; Plant response rating, Sedge, Umbrella (0 to 100 scale, 0 is no effect, 100 is complete control) ([8]; 250 g ai/ha): 0; Plant response rating, Ducksalad (0 to 100 scale, 0 is no effect, 100 is complete control) ([9]; 250 g ai/ha): 0; Plant response rating, Barnyardgrass (0 to 100 scale, 0 is no effect, 100 is complete control) ([10]; 250 g ai/ha): 0
CC(C)COc1nn(-c2ccc(C(F)(F)F)cc2)nc1Cc1ccnc(C(F)(F)F)c1 [Compound 193] | 10 | 20 | 0 | 0 | 10 | 30 | 0 | 40 | 10 | 20 | 10 | 70 | 10 | 40 | 0 | 0 | 70 | 100 | 0 | 20 | Plant response rating, Velvetleaf [6, 11]: 30; Velvetleaf plant response rating [6, 12]: 70; Plant response rating, Velvetleaf [6, 13]: 0; Plant response rating, Velvetleaf [6, 14]: 0; Plant response rating, Wheat [7, 11]: 0; Wheat plant response rating [7, 12]: 10; Plant response rating, Wheat [7, 13]: 0; Plant response rating, Wheat [7, 14]: 0; Plant response rating, Corn (corn (Zea mays); [11]): 10; Corn plant response rating (corn (Zea mays); [12]): 30; Plant response rating, Corn (corn (Zea mays); [13]): 0; Plant response rating, Corn (corn (Zea mays); [14]): 0; Plant response rating, Rice (0 to 100 scale, 0 is no effect, 100 is complete control) (rice (Oryza sativa); 125 g ai/ha): 0; Plant response rating, Sedge, Umbrella (0 to 100 scale, 0 is no effect, 100 is complete control) ([8]; 125 g ai/ha): 0; Plant response rating, Ducksalad (0 to 100 scale, 0 is no effect, 100 is complete control) ([9]; 125 g ai/ha): 0; Plant response rating, Barnyardgrass (0 to 100 scale, 0 is no effect, 100 is complete control) ([10]; 125 g ai/ha): 0
CCCCOc1nn(-c2ccc(C(F)(F)F)cc2)nc1Cc1ccnc(C(F)(F)F)c1 [Compound 194] | 10 | 20 | 0 | 0 | 10 | 20 | 0 | 10 | 10 | 30 | 0 | 30 | 10 | 30 | 0 | 0 | 40 | 100 | 0 | 10 | Plant response rating, Velvetleaf [6, 11]: 30; Velvetleaf plant response rating [6, 12]: 50; Plant response rating, Velvetleaf [6, 13]: 0; Plant response rating, Velvetleaf [6, 14]: 0; Plant response rating, Wheat [7, 11]: 0; Wheat plant response rating [7, 12]: 20; Plant response rating, Wheat [7, 13]: 0; Plant response rating, Wheat [7, 14]: 0; Plant response rating, Corn (corn (Zea mays); [11]): 0; Corn plant response rating (corn (Zea mays); [12]): 20; Plant response rating, Corn (corn (Zea mays); [13]): 0; Plant response rating, Corn (corn (Zea mays); [14]): 0; Plant response rating, Rice (0 to 100 scale, 0 is no effect, 100 is complete control) (rice (Oryza sativa); 125 g ai/ha): 0; Plant response rating, Sedge, Umbrella (0 to 100 scale, 0 is no effect, 100 is complete control) ([8]; 125 g ai/ha): 0; Plant response rating, Ducksalad (0 to 100 scale, 0 is no effect, 100 is complete control) ([9]; 125 g ai/ha): 0; Plant response rating, Barnyardgrass (0 to 100 scale, 0 is no effect, 100 is complete control) ([10]; 125 g ai/ha): 0
